# In ChEMBL document CHEMBL5096162, “A review on ferulic acid and analogs based scaffolds for the management of Alzheimer's disease” (Eur J Med Chem, 2021):
# Tests used:
# [1] = target: Amyloid-beta precursor protein (Homo sapiens) (UniProt P05067); experiment: Inhibition of amyloid beta (1 to 42) (unknown origin) self aggregation assessed as reduction in fluorescence intensity at 20 uM incubated for 24 hrs by ThT-based fluorimetric assay
# [2] = Antioxidant activity assessed as trolox equivalent of ORAC radical scavenging activity by ORAC-FL assay; format: functional
# [3] = target: Cholinesterase (Equus caballus) (UniProt P81908); experiment: Inhibition of equine BuChE at 1 uM by Ellman's method
# [4] = target: Acetylcholinesterase (Electrophorus electricus) (UniProt O42275); experiment: Inhibition of electric eel AChE at 1 uM by Ellman's method
# [5] = target: T1, Amine oxidase [flavin-containing] B (Homo sapiens, UniProt P27338); experiment: Inhibition of recombinant human MAO-B assessed as measuring amount of 4-hydroxyquinoline using kynuramine as substrate incubated for 30 mins by fluorescence spectrophotometry
# T1 sequence (P27338 whole entry): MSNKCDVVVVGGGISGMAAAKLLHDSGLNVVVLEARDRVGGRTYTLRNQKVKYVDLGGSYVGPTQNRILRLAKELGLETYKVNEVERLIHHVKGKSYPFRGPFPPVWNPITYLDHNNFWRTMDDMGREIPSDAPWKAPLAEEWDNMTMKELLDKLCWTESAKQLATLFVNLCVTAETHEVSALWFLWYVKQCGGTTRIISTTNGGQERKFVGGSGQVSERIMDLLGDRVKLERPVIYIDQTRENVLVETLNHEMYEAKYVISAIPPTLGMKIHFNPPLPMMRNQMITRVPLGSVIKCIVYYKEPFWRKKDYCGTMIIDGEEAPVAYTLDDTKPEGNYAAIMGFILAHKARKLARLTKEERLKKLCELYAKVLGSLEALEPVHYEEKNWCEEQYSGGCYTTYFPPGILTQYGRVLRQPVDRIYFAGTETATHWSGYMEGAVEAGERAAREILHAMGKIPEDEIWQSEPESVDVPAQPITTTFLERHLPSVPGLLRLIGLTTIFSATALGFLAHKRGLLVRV
# [6] = target: Amyloid-beta precursor protein (Homo sapiens) (UniProt P05067); experiment: Inhibition of self-induced amyloid beta (1 to 42) (unknown origin) aggregation assessed as disaggregation at 25 uM incubated for 24 hrs in dark by ThT-based fluorimetric assay
# [7] = target: T2, Amine oxidase [flavin-containing] A (Homo sapiens, UniProt P21397); experiment: Inhibition of recombinant human MAO-A assessed as measuring amount of 4-hydroxyquinoline using kynuramine as substrate incubated for 30 mins by fluorescence spectrophotometry
# T2 sequence (P21397 whole entry): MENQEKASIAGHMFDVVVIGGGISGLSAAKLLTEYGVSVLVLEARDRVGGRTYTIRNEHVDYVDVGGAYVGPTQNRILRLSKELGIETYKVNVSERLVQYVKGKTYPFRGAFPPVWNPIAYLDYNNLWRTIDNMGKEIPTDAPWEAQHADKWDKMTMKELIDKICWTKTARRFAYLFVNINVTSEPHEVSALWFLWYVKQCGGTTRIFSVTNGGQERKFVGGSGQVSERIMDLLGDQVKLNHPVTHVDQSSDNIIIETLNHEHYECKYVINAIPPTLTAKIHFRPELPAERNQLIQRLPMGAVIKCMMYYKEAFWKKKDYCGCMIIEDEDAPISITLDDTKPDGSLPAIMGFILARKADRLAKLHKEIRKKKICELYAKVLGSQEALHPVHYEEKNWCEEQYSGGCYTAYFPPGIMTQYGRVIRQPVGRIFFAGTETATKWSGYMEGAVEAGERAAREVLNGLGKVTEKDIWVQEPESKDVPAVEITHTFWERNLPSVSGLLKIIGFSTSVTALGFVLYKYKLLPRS
# Cholinesterase [8] = target: T3, Cholinesterase (Equus caballus, UniProt P81908); experiment: Inhibition of equine BuChE incubated for 15 mins using butyrylthiocholine as substrate by Ellman's method
# Acetylcholinesterase [9] = target: T4, Acetylcholinesterase (Electrophorus electricus, UniProt O42275); experiment: Inhibition of electric eel AChE incubated for 15 mins using acetylthiocholine as substrate by Ellman's method
# [10] = target: Amyloid-beta precursor protein (Homo sapiens) (UniProt P05067); experiment: Inhibition of self-induced amyloid beta (1 to 42) (unknown origin) aggregation at 25 uM incubated for 24 hrs in dark by ThT-based fluorimetric assay
# SH-SY5Y = experiment: Neuroprotective activity against amyloid beta-induced cytotoxicity in human SH-SY5Y cells assessed as cell viability at 10 to 80 uM by MTT assay; format: functional; conditions: dose 10-80 µM
# Acetylcholinesterase [11] = target: Acetylcholinesterase (Homo sapiens, UniProt P22303); experiment: Inhibition of human AchE using acetylthiocholine iodide as substrate by Ellman colorimetric assay
# Beta-secretase 1 = Beta-secretase 1 (Homo sapiens, UniProt P56817); experiment: Inhibition of human BACE-1 by FRET-based fluorometric assay
# Cholinesterase [12] = target: T5, Cholinesterase (Homo sapiens, UniProt P06276); experiment: Inhibition of human BuchE using butyrylthiocholine iodide as substrate by Ellman colorimetric assay
# [13] = Antioxidant activity assessed as GO radical cation scavenging activity measured for 30 mins by spectrophotometeric analysis; format: functional
# [14] = Metal chelating activity assessed as Fe2+ -ferrozoine complex formation incubated for 10 mins followed by ferrozine addition and further incubated for 10 mins by spectrophotometric assay; conditions: time 20.0 min
# [15] = Antioxidant activity of compound assessed as trolox equivalent of AAPH radical scavenging activity preincubated for 15 mins followed by AAPH addition and measured for 120 mins by ORAC-FL assay; format: functional; conditions: time 135.0 min
# [16] = Antioxidant activity assessed as DPPH radical scavenging activity measured for 45 mins by spectrophotometric analysis; format: functional
# [17] = Antioxidant activity assessed as ABTS radical cation scavenging activity measured every minute for 15 mins by spectrophotometeric analysis; format: functional
# [18] = Antioxidant activity assessed as DPPH radical scavenging activity at 200 uM incubated for 2 hrs in dark by spectrophotometric analysis; format: functional
# [19] = Antioxidant activity of compound assessed as trolox equivalent of AAPH radical scavenging activity preincubated for 15 mins followed by AAPH addition and measured every 1 min for 60 mins by ORAC-FL assay; format: functional; conditions: time 75.0 min
# Cholinesterase [20] = target: T5, Cholinesterase
# Description: Inhibition of human BuchE preincubated for 6 mins followed by substrate addition using butyrylthiocholine iodide as substrate by DTNB reagent based Ellman method
# Cholinesterase [21] = target: T3, Cholinesterase; experiment: Inhibition of equine serum BuchE preincubated for 6 mins followed by substrate addition using butyrylthiocholine iodide as substrate by DTNB reagent based Ellman method
# [22] = target: Amyloid-beta precursor protein (Homo sapiens) (UniProt P05067); experiment: Inhibition of self-induced amyloid beta (1 to 42) (unknown origin) aggregation at 20 uM incubated for 46 to 48 hrs in dark by ThT-based fluorimetric assay; conditions: time 46-48 hrs
# [23] = Antioxidant activity assessed as DPPH radical scavenging activity measured for 30 mins in dark by UV-Vis spectrophotometric analysis; format: functional
# Acetylcholinesterase [24] = target: T4, Acetylcholinesterase; experiment: Inhibition of electric eel AChE preincubated for 15 mins followed by substrate addition using acetylthiocholine iodide as substrate by Ellman's method
# [25] = Antioxidant activity assessed as DPPH radical scavenging activity at 1 mM incubated for 30 mins by microplate reader method; format: functional
# [26] = target: Amyloid-beta precursor protein (Homo sapiens) (UniProt P05067); experiment: Inhibition of amyloid beta (1 to 42) (unknown origin) self aggregation assessed as reduction in fluorescence intensity at 80 uM incubated for 24 hrs by ThT-based fluorimetric assay
# Cholinesterase [27] = target: T3, Cholinesterase; experiment: Inhibition of equine serum BuChE preincubated for 5 mins followed by substrate addition and measured after 5 mins using S-butyrylthiocholine iodide as substrate by Ellman's method
# Cholinesterase [28] = target: T5, Cholinesterase; experiment: Inhibition of human BuchE preincubated for 30 mins followed by substrate addition using butyrylthiocholine iodide as substrate by Ellman's method
# T5 sequence (P06276 whole entry): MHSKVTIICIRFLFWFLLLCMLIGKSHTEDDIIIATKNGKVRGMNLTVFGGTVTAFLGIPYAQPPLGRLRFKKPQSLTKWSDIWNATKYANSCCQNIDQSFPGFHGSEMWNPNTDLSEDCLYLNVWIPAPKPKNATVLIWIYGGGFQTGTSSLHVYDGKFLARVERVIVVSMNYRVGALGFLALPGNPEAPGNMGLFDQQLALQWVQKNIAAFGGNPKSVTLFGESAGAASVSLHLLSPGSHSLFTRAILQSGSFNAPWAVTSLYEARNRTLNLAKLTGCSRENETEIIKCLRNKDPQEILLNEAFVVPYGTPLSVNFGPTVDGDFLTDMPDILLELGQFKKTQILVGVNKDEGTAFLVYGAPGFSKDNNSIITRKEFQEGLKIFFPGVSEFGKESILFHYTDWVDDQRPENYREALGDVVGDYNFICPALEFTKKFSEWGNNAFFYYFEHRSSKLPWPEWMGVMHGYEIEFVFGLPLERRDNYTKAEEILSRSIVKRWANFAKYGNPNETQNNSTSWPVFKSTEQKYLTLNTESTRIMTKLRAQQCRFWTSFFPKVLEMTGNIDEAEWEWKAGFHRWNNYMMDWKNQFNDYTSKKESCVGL
# Amyloid-beta precursor protein (Homo sapiens), sequence (P05067 whole entry): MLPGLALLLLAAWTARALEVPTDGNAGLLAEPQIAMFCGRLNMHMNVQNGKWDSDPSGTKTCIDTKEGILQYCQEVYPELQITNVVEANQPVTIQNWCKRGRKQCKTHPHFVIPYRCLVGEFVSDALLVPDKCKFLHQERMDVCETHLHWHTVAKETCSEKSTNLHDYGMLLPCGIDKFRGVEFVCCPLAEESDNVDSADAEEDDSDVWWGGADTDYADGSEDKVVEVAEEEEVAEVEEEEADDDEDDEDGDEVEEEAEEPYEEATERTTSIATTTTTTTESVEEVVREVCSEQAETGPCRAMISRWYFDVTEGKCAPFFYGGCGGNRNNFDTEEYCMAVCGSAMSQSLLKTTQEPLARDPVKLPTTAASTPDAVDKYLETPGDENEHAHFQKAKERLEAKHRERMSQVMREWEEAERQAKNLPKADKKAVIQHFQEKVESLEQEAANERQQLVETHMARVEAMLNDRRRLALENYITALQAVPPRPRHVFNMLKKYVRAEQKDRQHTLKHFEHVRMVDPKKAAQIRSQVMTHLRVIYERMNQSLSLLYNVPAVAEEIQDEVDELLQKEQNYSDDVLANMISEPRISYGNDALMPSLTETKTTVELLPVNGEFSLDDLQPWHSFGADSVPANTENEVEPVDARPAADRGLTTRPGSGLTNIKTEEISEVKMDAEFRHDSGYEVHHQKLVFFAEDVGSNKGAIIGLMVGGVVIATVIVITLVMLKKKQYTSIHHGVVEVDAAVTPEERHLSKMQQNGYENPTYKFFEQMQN
# T3 sequence (P81908 whole entry): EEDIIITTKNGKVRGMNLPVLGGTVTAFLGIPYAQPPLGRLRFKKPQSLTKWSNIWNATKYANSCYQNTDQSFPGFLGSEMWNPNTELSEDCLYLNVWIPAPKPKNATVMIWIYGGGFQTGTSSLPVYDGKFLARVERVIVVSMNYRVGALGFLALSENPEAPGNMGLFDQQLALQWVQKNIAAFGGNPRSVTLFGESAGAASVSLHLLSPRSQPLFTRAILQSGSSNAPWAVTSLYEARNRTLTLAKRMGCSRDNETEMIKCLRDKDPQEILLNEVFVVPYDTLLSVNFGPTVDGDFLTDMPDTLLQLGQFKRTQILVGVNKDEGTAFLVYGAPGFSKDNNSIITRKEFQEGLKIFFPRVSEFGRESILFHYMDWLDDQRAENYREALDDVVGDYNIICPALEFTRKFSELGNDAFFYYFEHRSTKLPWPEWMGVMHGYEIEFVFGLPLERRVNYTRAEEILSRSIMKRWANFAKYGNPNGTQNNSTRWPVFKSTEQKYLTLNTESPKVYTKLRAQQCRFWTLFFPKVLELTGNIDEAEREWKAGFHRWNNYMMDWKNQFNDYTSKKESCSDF
# T4 sequence (O42275 whole entry): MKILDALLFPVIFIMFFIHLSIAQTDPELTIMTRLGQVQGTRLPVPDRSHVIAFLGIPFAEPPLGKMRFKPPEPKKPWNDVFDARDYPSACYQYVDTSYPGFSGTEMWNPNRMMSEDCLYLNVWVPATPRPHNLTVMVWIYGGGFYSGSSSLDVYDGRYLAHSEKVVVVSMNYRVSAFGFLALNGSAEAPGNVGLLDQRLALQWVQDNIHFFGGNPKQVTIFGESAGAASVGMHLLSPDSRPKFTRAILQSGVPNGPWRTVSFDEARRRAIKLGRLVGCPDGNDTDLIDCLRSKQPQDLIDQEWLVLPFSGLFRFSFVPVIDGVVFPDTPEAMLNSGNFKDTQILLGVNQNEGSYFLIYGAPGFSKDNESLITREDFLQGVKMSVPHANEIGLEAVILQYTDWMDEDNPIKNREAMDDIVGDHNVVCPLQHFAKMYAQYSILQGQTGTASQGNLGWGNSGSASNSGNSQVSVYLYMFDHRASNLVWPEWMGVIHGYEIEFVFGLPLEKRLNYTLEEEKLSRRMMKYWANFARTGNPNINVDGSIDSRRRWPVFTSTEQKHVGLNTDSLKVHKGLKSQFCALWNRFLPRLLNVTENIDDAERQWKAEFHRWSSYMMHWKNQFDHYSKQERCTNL
# Beta-secretase 1, sequence (P56817 whole entry): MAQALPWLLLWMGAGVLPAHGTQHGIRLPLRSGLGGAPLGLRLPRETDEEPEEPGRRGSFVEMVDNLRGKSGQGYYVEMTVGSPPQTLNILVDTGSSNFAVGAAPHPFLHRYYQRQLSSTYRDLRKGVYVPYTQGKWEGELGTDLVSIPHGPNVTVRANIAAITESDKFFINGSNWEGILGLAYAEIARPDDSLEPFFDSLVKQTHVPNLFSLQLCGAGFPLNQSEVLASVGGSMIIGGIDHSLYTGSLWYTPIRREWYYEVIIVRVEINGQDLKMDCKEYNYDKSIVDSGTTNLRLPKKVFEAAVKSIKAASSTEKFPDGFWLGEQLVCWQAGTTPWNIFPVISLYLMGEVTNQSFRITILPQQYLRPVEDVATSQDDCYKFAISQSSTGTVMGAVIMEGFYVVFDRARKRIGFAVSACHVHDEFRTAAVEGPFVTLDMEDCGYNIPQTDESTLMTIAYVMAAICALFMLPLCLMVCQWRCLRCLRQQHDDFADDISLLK
# Acetylcholinesterase (Homo sapiens, UniProt P22303), sequence (P22303 whole entry): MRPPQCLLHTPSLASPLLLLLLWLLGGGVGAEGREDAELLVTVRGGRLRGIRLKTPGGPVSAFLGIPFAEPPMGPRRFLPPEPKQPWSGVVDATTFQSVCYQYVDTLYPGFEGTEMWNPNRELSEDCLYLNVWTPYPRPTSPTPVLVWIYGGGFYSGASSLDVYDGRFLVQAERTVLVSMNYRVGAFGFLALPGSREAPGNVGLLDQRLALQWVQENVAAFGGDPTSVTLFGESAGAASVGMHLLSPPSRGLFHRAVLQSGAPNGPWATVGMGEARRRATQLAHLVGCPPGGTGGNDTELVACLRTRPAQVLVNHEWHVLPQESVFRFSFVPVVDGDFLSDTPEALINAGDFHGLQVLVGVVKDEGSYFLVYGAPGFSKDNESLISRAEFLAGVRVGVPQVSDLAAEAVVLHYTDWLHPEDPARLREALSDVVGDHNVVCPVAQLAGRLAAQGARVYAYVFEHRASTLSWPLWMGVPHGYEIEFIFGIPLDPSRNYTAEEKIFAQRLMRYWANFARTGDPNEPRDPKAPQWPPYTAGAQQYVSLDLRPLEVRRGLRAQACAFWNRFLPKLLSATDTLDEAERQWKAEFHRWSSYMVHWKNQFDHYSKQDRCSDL
# Cholinesterase (Equus caballus), sequence (P81908 whole entry): as the sequence (P81908 whole entry) above
# Acetylcholinesterase (Electrophorus electricus), sequence (O42275 24-633 limits assumed): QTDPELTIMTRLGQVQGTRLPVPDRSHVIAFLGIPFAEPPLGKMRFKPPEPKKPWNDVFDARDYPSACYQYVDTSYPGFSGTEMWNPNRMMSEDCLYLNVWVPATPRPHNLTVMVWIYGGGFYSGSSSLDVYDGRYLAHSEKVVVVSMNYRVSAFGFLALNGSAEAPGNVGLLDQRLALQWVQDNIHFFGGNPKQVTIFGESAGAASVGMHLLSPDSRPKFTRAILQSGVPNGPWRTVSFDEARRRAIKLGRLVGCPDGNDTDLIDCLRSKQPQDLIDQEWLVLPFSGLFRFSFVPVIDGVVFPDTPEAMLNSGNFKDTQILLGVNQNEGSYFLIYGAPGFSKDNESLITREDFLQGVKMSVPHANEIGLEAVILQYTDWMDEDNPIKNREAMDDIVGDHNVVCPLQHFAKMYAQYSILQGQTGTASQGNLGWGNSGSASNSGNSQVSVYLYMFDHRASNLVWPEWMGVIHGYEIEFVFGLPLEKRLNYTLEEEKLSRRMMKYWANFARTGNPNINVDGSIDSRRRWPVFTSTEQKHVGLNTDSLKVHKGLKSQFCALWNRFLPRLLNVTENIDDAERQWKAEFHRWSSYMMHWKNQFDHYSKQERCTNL
structure (smiles),measurement,setting,value
COC(=O)/C=C/c1ccc(OCCCCCN2CCN(CC(=O)Nc3c4c(nc5ccccc35)CCCC4)CC2)c(OC)c1,inhibition,[1],37.2%
COc1cc(/C=C/C(=O)N(CCC2CCN(Cc3ccccc3)CC2)CC(=O)Nc2c(C)cccc2Cl)ccc1O,Activity,[2],6.9 equiv
same,inhibition,[3],57.3%
same,inhibition,[4],24.8%
COc1cc(/C=C/C(=O)N2CCc3ccccc3C2)ccc1OCCCCN(CNCc1ccccc1)CNCc1ccccc1,IC50,[5],8.6 µM
same,Activity,[2],0.52 equiv
same,inhibition,[6],43.8%
same,IC50,[7],6.3 µM
same,IC50,Cholinesterase [8],8.93 µM
same,IC50,Acetylcholinesterase [9],12.1 µM
same,inhibition,[10],59.3%
COc1cc(/C=C/c2nnc(-c3ccc(C(F)(F)F)cc3)o2)ccc1O,Activity,SH-SY5Y,70.45%
same,IC50,Acetylcholinesterase [11],0.068 µM
same,IC50,Beta-secretase 1,0.255 µM
same,IC50,Cholinesterase [12],0.255 µM
COc1cc(/C=C/C(=O)O)ccc1O [FERULATE],IC50,[13],37.5 µM
same,Activity,[14],8.9%
same,Activity,[15],0.34
same,IC50,[16],64.6 µM
same,IC50,[17],16.8 µM
COc1cc(/C=C/C(=O)O)ccc1S,IC50,[13],4.25 µM
same,Activity,[15],0.34
same,IC50,[16],47.8 µM
same,IC50,[17],19.9 µM
COCCCCCCCCCCCCCCCCCCOC(=O)/C=C/c1ccc(O)c(OC)c1,Activity,[14],77.9%
COc1cc(/C=C/c2nnc(-c3ccc(OC(F)(F)F)cc3)o2)ccc1O,Activity,SH-SY5Y,65.11%
same,IC50,Acetylcholinesterase [11],0.092 µM
same,IC50,Beta-secretase 1,0.21 µM
same,IC50,Cholinesterase [12],0.21 µM
O=C(NCc1ccccc1)C(c1ccnc2ccccc12)N(Cc1ccccc1)C(=O)/C=C/c1ccc(O)c(O)c1 (stereo unspecified),Activity,[18],> 77%
same,Activity,[19],4.98 equiv
COc1ccc(/C=C/C(=O)Nc2cc[n+](Cc3cccc(F)c3)cc2)cc1OC,IC50,Cholinesterase [20],0.0048 µM
same,IC50,Cholinesterase [21],0.0031 µM
same,inhibition,[22],63.4%
C=CCc1ccc(OC(=O)/C=C/c2ccc(O)c(O)c2)c(OC)c1,IC50,[23],11.2 µM
COc1ccc(/C=C/C(O)NCCCNc2c3c(nc4ccccc24)CCCC3)cc1OC (stereo unspecified),IC50,Acetylcholinesterase [24],0.09 µM
same,Activity,[25],16.8%
same,inhibition,[26],56.5%
O=C(/C=C/c1ccc(O)c(O)c1)NCCCCCC[P+](c1ccccc1)(c1ccccc1)c1ccccc1,IC50,Cholinesterase [27],0.15 µM
O=C(/C=C/c1ccc(O)c(O)c1)Nc1cccc2ccccc12,IC50,[23],20.8 µM
O=C(CCCCC1CCSS1)O[C@H]1C[C@H]2O[C@H](OC(=O)NCc3ccccc3)C[C@H]2O1 (stereo partly specified),IC50,Cholinesterase [28],0.15 µM
